# From patent US10450297B2, “Sulfonyl amide derivatives for the treatment of abnormal cell growth” (Pfizer, Inc., priority 2007, dated 2019)
# Target: FAK kinase (catalytic construct FAK(410-689)) (Homo sapiens (Human), UniProt Q05397)
# Assay: FAKcd kinase ELISA (inhibition of poly-glu-tyr phosphorylation by FAK(410-689))
# Type: biochemical
# Settings: 50 μM final ATP
# Procedure: A. In-Vitro Activity of FAK:
# The assay protocol has three parts:
# 3. […] 4. […] 5. […] 6. […] 7. […] 9. […] 10. […] 12. […] 13. […] 14. Aliquot the FAKcd protein and store frozen at −80° C. II. FAK Activation 1. […] At t120 (t=120 minutes), add 10 μl of 150 mM ATP. […] Add 180 μl aliquots of the desalted material to NiNTA spin column and incubate on spin column 4. […] FAKcd Kinase ELISA 1. Coat 96-well Nunc MaxiSorp plates with poly-glu-tyr (pGT) at […]: Prepare 10 μg/ml of pGT in PBS and aliquot 100 μl/well. Incubate the plates at 37° C. overnight, aspirate the supernatant, wash the plates 3 times with Wash Buffer, and flick to dry before storing at 4° C. 2. Prepare compound stock solutions of 2.5 mM in 100% DMSO. The stocks are subsequently diluted to 60× of the final concentration in 100% DMSO, and diluted 1:5 in Kinase Phosphorylation Buffer. 3. […] Add 80 μl to each well for a final ATP concentration of 50 μM. 4. […] 5. Dilute on ice, FAKcd protein to 1:1000 in Kinase Phosphorylation Buffer. Dispense 30 μl per well. 6. Note: Linearity and the appropriate dilution must be pre-determined for each batch of protein. The enzyme concentration selected should be such that quantitation of the assay signal will be approximately 0.8-1.0 at OD450, and in the linear range of the reaction rate. 7. Prepare both a No ATP control (noise) and a No Compound Control (Signal): 8. (Noise) One blank row of wells receives 10 μl of 1:5 diluted compounds in DMSO, 80 μl of Phosphorylation buffer (minus ATP), and 30 μl FAKcd solution. 9. […] 10. Incubate reaction at room temperature for 15 minutes with gentle shaking on a plate shaker. 11. Terminate the reaction by aspirating off the reaction mixture and washing 3 times with wash buffer. 12. Dilute phospho-tyrosine HRP-conjugated (pY20HRP) antibody to 0.250 μg/ml (1:1000 of Stock) in blocking buffer. Dispense 100 μl per well, and incubate with shaking for 30 minutes at 25°. 13. Aspirate the supernatant and wash the plate 3 times with wash buffer. 14. Add 100 μl per well of room temperature TMB solution to initiate color development. Color development is terminated after approximately 15-30 sec. by the addition of 100 μl of 0.09M H2SO4 per well. 15. The signal is quantitated by measurement of absorbance at 450 nm on the BioRad ricroplate reader or a microplate reader capable of reading at OD450. 16. Inhibition of tyrosine kinase activity would result in a reduced absorbance signal. […] The values are reported as IC50s, μM concentration. FAK Inducible cell-based ELISA: Final Protocol Materials: […]
# Chain of FAK kinase (catalytic construct FAK(410-689)) (Q05397 410-689): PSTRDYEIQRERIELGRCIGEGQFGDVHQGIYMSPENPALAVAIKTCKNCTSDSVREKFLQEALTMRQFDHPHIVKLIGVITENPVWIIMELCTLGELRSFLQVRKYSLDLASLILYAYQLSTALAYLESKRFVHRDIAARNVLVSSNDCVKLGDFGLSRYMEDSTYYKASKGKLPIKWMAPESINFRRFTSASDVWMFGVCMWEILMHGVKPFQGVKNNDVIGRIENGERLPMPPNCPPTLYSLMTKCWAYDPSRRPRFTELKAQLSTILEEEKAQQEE
row,Structure (SMILES),IC50
1,"CN(c1ncccc1CNc1nc(Nc2ccc(S(N)(=O)=O)cc2)ncc1C(F)(F)F)S(C)(=O)=O [Compound 16, 4-({4-[({2-[methyl(methylsulfonyl)amino]pyridin-3-yl}methyl)amino]-5-(trifluoromethyl)pyrimidin-2-yl}amino)benzenesulfon-amide]",4.09 nM
2,"CS(=O)(=O)c1cccc(CNc2nc(Nc3ccc(S(N)(=O)=O)cc3)ncc2C(F)(F)F)c1 [Compound 18, 4-{[4-{[3-(methylsulfonyl)benzyl]amino}-5-(trifluoromethyl)pyrimidin-2-yl]amino}benzene-sulfonamide]",13.2 nM
3,"CN(c1ncccc1CNc1nc(Nc2ccc(C(N)=O)cc2)ncc1C(F)(F)F)S(C)(=O)=O [Compound 19, 4-({4-[({2-[methyl(methylsulfonyl)amino]pyridin-3-yl}methyl)amino]-5-(trifluoromethyl)pyrimidin-2-yl}amino)benzamide]",3.4 nM
4,"CN(c1ncccc1CNc1nc(Nc2ccc(S(C)(=O)=O)nc2)ncc1C(F)(F)F)S(C)(=O)=O [Compound 23, N-methyl-N-[3-({[2-{[6-(methylsulfonyl)pyridin-3-yl]amino}-5-(trifluoromethyl)pyrimidin-4-yl]amino}methyl)pyridin-2-yl]methanesulfonamide]",68.6 nM
5,"CS(=O)(=O)c1cccc(CNc2nc(Nc3ccc(S(C)(=O)=O)nc3)ncc2C(F)(F)F)c1 [Compound 24, N-4-[3-(methylsulfonyl)benzyl]-N-2-[6-(rnethylsulfonyl)pyridin-3-yl]-5-(trifluoromethyl)-pyrimidine-2,4-diamine]",337 nM
6,"Cc1ccc(CNc2nc(Nc3ccc(S(C)(=O)=O)nc3)ncc2C(F)(F)F)c(N(C)S(C)(=O)=O)n1 [Compound 25, N-methyl-N-[6-methyl-3-({[2-{[6-(methylsulfonyl)pyridin-3-yl]amino}-5-(trifluoromethyl)pyrimidin-4-yl]amino}methyl)pyridin-2-yl]methanesulfonamide]",12.9 nM
7,"CN(c1cccc(CNc2nc(Nc3ccc(S(C)(=O)=O)nc3)ncc2C(F)(F)F)c1)S(C)(=O)=O [Compound 26, N-methyl-N-[3-({[2-{[6-(methylsulfonyl)pyridin-3-yl]amino}-5-(trifluoromethyl)pyrimidin-4-yl]amino}methyl)phenyl] methanesulfonamide]",154 nM
8,"CN(c1cccc(CNc2nc(Nc3ccc(S(N)(=O)=O)cc3)ncc2Br)c1)S(C)(=O)=O [Compound 34, 4-{[5-bromo-4-({3-[methyl(methylsulfonyl)amino]benzyl}amino)pyrimidin-2-yl)amino}benzenesulfonamide]",15.6 nM
9,"CS(=O)(=O)c1cccc(CNc2nc(Nc3ccc(S(N)(=O)=O)cc3)ncc2Br)c1 [Compound 35, 4-[(5-bromo-4-{[3-(methylsulfonyl)benzyl]amino}pyrimidin-2-yl)amino]benzene-sulfonamide]",17.6 nM
10,"CN(c1ncccc1CNc1nc(NC2CCN(S(C)(=O)=O)CC2)ncc1C(F)(F)F)S(C)(=O)=O [Compound 36, N-methyl-N-[3-({[2-{[1-(methylsulfonyl)piperidin-4-yl]amino}-5-(trifluoromethyl)pyrimidin-4-yl]amino}methyl)pyridin-2-yl]methanesulfonamide]",188 nM
11,"CN(c1ncccc1CNc1nc(NC2CCC2)ncc1C(F)(F)F)S(C)(=O)=O [Compound 38, N-[3-({[2-(cyclobutylamino)-5-(trifluoromethyl)pyrimidin-4-yl]amino}methyl)pyrldin-2-yl]-N-methylmethane-sulfonamide]",497 nM
12,"CC(=O)N1CC[C@@H](Nc2ncc(C(F)(F)F)c(NCc3cccnc3N(C)S(C)(=O)=O)n2)C1 [Compound 39, N-[3-({[2-{[(3R)-1-acetylpyrrolidin-3-yl]amino}-5-(trifluoromethyl)pyrimidin-4-yl]amino}methyl)pyridin-2-yl]-N-methylmethane-sulfonamide]",1000 nM

# These reach a lower IC50. Values come first.
row,IC50,Structure (SMILES)
1,0.6 nM,"CN(c1ncccc1CNc1nc(Nc2ccc(C(=O)N3CC[C@H](F)C3)cc2)ncc1C(F)(F)F)S(C)(=O)=O (stereo in doubt) [Compound 235, N-[3-({[2-({4-[(3-fluoropyrrolidin-1-yl)carbonyl]phenyl}amino)-5-(trifluoromethyl)pyrimidin-4-yl]amino}methyl)pyridin-2-yl]-N-methylmethane-sulfonamide]"
2,0.616 nM,"CC(N)c1ccc(Nc2ncc(C(F)(F)F)c(NCc3nccnc3N(C)S(C)(=O)=O)n2)cc1 (stereo in doubt) [Compound 351, N-[3-({[2-({4-[(1R)-1-aminoethyl]phenyl}amino)-5-(trifluoromethyl)pyrimidin-4-yl]amino}methyl)pyrazin-2-yl]-N-methylmethane-sulfonamide]"
3,< 0.595 nM,"CC(N)c1ccc(Nc2ncc(C(F)(F)F)c(NCc3ccccc3N(C)S(C)(=O)=O)n2)cc1 (stereo in doubt) [Compound 362, N-[2-({[2-({4-[(1R)-1-aminoethyl]phenyl}amino)-5-(trifluoromethyl)pyrimidin-4-yl]amino}methyl)phenyl]-N-methylmethanesulfonamide]"
4,1.26 nM,"Cc1ccc(CNc2nc(Nc3ccc(S(N)(=O)=O)cc3)ncc2C(F)(F)F)c(N(C)S(C)(=O)=O)n1 [Compound 17, 4-({4-[({6-methyl-2-[methyl(methylsulfonyl)amino]pyridin-3-yl}methyl)amino]-5-(trifluoromethyl)pyrimidin-2-yl}amino)benzene-sulfonamide]"
5,0.6 nM,"CN(c1ncccc1CNc1nc(Nc2ccc(C(N)=O)cc2)ncc1C(F)(F)F)S(C)(=O)=O [Compound 20, 4-({4-[({2-[methyl(methylsulfonyl)amino]pyridin-3-yl}methyl)amino]-5-(trifluoromethyl)pyrimidin-2-yl}amino)benzamide]"
6,1 nM,"Cc1ccc(CNc2nc(Nc3ccc(C(N)=O)cc3)ncc2C(F)(F)F)c(N(C)S(C)(=O)=O)n1 [Compound 21, 4-({4-[{{6-methyl-2-[methyl(methylsulfonyl)amino]pyridin-3-yl}methyl)amino]-5-(trifluoromethyl)pyrimidin-2-yl}amino)benzamide]"
7,1.38 nM,"CN(c1ncccc1CNc1nc(Nc2ccc(N3CCCS3(=O)=O)cc2)ncc1C(F)(F)F)S(C)(=O)=O [Compound 27, N-[3-({[2-{[4-(1,1-dioxidoisothiazolidin-2-yl)phenyl]amino}-5-(trifluoromethyl)pyrimidin-4-yl]amino}methyl)pyridin-2-yl]-N-methylmethane-sulfonamide]"
8,2.01 nM,"Cc1ccc(CNc2nc(Nc3ccc(N4CCCS4(=O)=O)cc3)ncc2C(F)(F)F)c(N(C)S(C)(=O)=O)n1 [Compound 28, N-[3-({[2-{[4-(1,1-dloxidolsothiazolidin-2-yl)phenyl]amino}-5-(trifluoromethyl)pyrimidin-4-yl]amino}methyl)-6-methylpyridin-2-yl]-N-methylmethanesulfonamide]"
9,2.09 nM,"CS(=O)(=O)c1cccc(CNc2nc(Nc3ccc(N4CCCS4(=O)=O)cc3)ncc2C(F)(F)F)c1 [Compound 29, N~2~-[4-(1,1-dioxidoisothiazolidin-2-yl)phenyl]-N-4~-[3-(methylsulfonyl)benzyl]-5-(trifluoromethyl)pyrimidine-2,4-diamine]"
10,0.72 nM,"CN(c1ncccc1CNc1nc(Nc2ccc(CNS(C)(=O)=O)cc2)ncc1C(F)(F)F)S(C)(=O)=O [Compound 30, N-methyl-N-{3-[({2-[(4-{[(methylsulfonyl)amino]methyl}phenyl)amino]-5-(trifluoromethyl)pyrimidin-4-yl}amino)methyl]pyridin-2-yl}methanesulfonamide]"
11,2.22 nM,"CN(c1ncccc1CNc1nc(Nc2cccc(CS(N)(=O)=O)c2)ncc1C(F)(F)F)S(C)(=O)=O [Compound 31, N-[3-({[2-({3-[(aminosulfonyl)methyl]phenyl}amino)-5-(trifluoronnethyl)pyrimidin-4-yl]amino}methyl)pyridin-2-yl]-N-methylmethane-sulfonatnide]"
12,1.33 nM,"CN(c1ncccc1CNc1nc(Nc2cccc(CNS(C)(=O)=O)c2)ncc1C(F)(F)F)S(C)(=O)=O [Compound 33, N-methyl-N-{3-[({2-[(3-{[(methylsulfonyl)amino]methyl}phenyl)amino]-5-(trifluoromethyl)pyrimidin-4-yl}amino)methyl)pyridin-2-yl}methanesulfonamide]"
